Reference: PubChem BioAssay AID1963837 (Molecular Pharmacology Branch, DTP, NCI, 2024)

System: 843126-344-R-J1-PDC complex spheroid viability
Test: Anticancer human tumor 843126-344-R-J1-PDC patient-derived melanoma cell line growth inhibition [POLQ]
Details: for IC50: curve of first compound; for viability, T/C: stronger effect = lower value; active = viability on the fitted dose curve at most 10% of control; inactive = the rest
Procedure, shortened: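 Three-cell-type spheroids modelling solid tumor plus stroma served as the readout system; POL inhibitors were tested individually and in combination, concentration ranges set by clinical Cmax where known.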
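Throughout, for viability, T/C: spheroids exposed to drugs for seven days before readout.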

COc1cccc(OCCCN)c1-c1cc(Nc2cnc(C#N)cn2)n[nH]1 + Nc1ccc(C#CCN(C(=O)Cc2ncc(C(F)(F)F)cc2C(F)(F)F)c2ccc(F)cc2)nn1
inactive: viability, T/C (second compound 0.0316 µM, first compound 0.00316 µM) 92% | viability, T/C (second compound 0.0316 µM, first compound 0.01 µM) 78.5% | viability, T/C (second compound 0.0316 µM, first compound 0.0316 µM) 53.1% | viability, T/C (second compound 0.0316 µM, first compound 0.1 µM) 47.3% | viability, T/C (second compound 0.0316 µM, first compound 0.316 µM) 40% | viability, T/C (second compound 0.0316 µM, first compound 1 µM) 35.5% | viability, T/C (second compound 0.1 µM, first compound 0.00316 µM) 91.9% | viability, T/C (second compound 0.1 µM, first compound 0.01 µM) 71.2% | viability, T/C (second compound 0.1 µM, first compound 0.0316 µM) 53% | viability, T/C (second compound 0.1 µM, first compound 0.1 µM) 53.9% | viability, T/C (second compound 0.1 µM, first compound 0.316 µM) 45.1% | viability, T/C (second compound 0.1 µM, first compound 1 µM) 32.1% | viability, T/C (second compound 0.316 µM, first compound 0.00316 µM) 92.9% | viability, T/C (second compound 0.316 µM, first compound 0.01 µM) 72.5% | viability, T/C (second compound 0.316 µM, first compound 0.0316 µM) 59.6% | viability, T/C (second compound 0.316 µM, first compound 0.1 µM) 50% | viability, T/C (second compound 0.316 µM, first compound 0.316 µM) 42.2% | viability, T/C (second compound 0.316 µM, first compound 1 µM) 35.1% | viability, T/C (second compound 1 µM, first compound 0.00316 µM) 89.8% | viability, T/C (second compound 1 µM, first compound 0.01 µM) 72.6% | viability, T/C (second compound 1 µM, first compound 0.0316 µM) 59.6% | viability, T/C (second compound 1 µM, first compound 0.1 µM) 49.2% | viability, T/C (second compound 1 µM, first compound 0.316 µM) 43.8% | viability, T/C (second compound 1 µM, first compound 1 µM) 29.3% | viability, T/C (second compound 3.16 µM, first compound 0.00316 µM) 87.2% | viability, T/C (second compound 3.16 µM, first compound 0.01 µM) 74.6% | viability, T/C (second compound 3.16 µM, first compound 0.0316 µM) 44.3% | viability, T/C (second compound 3.16 µM, first compound 0.1 µM) 41.2% | viability, T/C (second compound 3.16 µM, first compound 0.316 µM) 38.6% | viability, T/C (second compound 3.16 µM, first compound 1 µM) 38.8% | viability, T/C (second compound 10 µM, first compound 0.00316 µM) 84.8% | viability, T/C (second compound 10 µM, first compound 0.01 µM) 66.8% | viability, T/C (second compound 10 µM, first compound 0.0316 µM) 51.9% | viability, T/C (second compound 10 µM, first compound 0.1 µM) 45.8% | viability, T/C (second compound 10 µM, first compound 0.316 µM) 42.8% | viability, T/C (second compound 10 µM, first compound 1 µM) 30.4%
54.2 nM: IC50 (second compound 10 µM)
57.8 nM: IC50 (second compound 0.0316 µM)
25.6 nM: IC50 (second compound 3.16 µM)
97.1 nM: IC50 (second compound 1 µM)
91.9 nM: IC50 (second compound 0.316 µM)
85.1 nM: IC50 (second compound 0.1 µM)
